Like-named read-outs stand apart in the source and are kept apart here.
Columns and labels:
HBV = assay: anti HBV activity, HepG2.117 cell line, intracellular HBV DNA by realtime PCR; assay type: cell-based; conditions: HepG2.117 cell line (Tet-off), 3 days of treatment, intracellular HBV DNA quantified by realtime PCR, read-out: HBV-AVE-HepG2.117 EC50
Protocol: The anti HBV activity was measured using the HepG2.117 cell line, a stable, inducibly HBV producing cell line, which replicates HBV in the absence of doxicycline (Tet-off system). For the antiviral assay, HBV replication was induced, followed by a treatment with serially diluted compound in 96-well plates in duplicate. After 3 days of treatment, the antiviral activity was determined by quantification of intracellular HBV DNA using realtime PCR and an HBV specific primer set and probe.

[1] = Cytotoxicity in HepG2 cells, Resazurin assay; conditions: human, HepG2 cells, TOX-HepG2-4 d CC50 (μM), HepG2 cells incubated for 4 days, viability by Resazurin assay
[2] = Hepatitis B virus, HepG2.117, 72 h

Work on Cn1cc2c(c1C(=O)Nc1ccnc(C(F)(F)F)c1)CCC(C(F)(F)F)NS2(=O)=O (racemic) [Compound 59, 7-methyl-1,1-dioxo-3-(trifluoromethyl)-N-[2-(trifluoromethyl)-4-pyridyl]-2,3,4,5-tetrahydropyrrolo[3,4-f]thiazepine-6-carboxamide] yielded an EC50 (HBV; [2]) of 240 nM and a CC50 at 4 days [1] greater than 25 µM.
Cn1cc2c(c1C(=O)Nc1ccc(F)c(C#N)c1)CCC(C(F)(F)F)NS2(=O)=O (racemic) [Compound 60, N-(3-cyano-4-fluoro-phenyl)-7-methyl-1,1-dioxo-3-(trifluoromethyl)-2,3,4,5-tetrahydropyrrolo[3,4-f]thiazepine-6-carboxamide] showed an EC50 (HBV; [2]) of 13 nM and a CC50 at 4 days [1] greater than 25 µM.
With Cn1cc2c(c1C(=O)Nc1ccc(F)c(F)c1)OCC(C)(c1cnccn1)NS2(=O)=O (racemic) [Compound 145, N-(3,4-difluorophenyl)-3,7-dimethyl-1,1-dioxo-3-pyrazin-2-yl-2,4-dihydropyrrolo[3,4-b][1,4,5]oxathiazepine-6-carboxamide] the EC50 (HBV; [2]) was 37 nM and the CC50 at 4 days [1] was greater than 25 µM.
Cn1cc2c(c1C(=O)Nc1ccc(F)c(F)c1)OCC(C)(c1ncccn1)NS2(=O)=O (racemic) [Compound 153, N-(3,4-difluorophenyl)-3,7-dimethyl-1,1-dioxo-3-pyrimidin-2-yl-2,4-dihydropyrrolo[3,4-b][1,4,5]oxathiazepine-6-carboxamide] showed an EC50 (HBV; [2]) of 68 nM and a CC50 at 4 days [1] greater than 25 µM.
Cn1cc2c(c1C(=O)Nc1ccc(F)c(F)c1)OCC(C)(c1ncco1)NS2(=O)=O (racemic) [Compound 160, N-(3,4-difluorophenyl)-3,7-dimethyl-3-oxazol-2-yl-1,1-dioxo-2,4-dihydropyrrolo[3,4-b][1,4,5]oxathiazepine-6-carboxamide] gave an EC50 (HBV; [2]) of 14.5 nM and a CC50 at 4 days [1] greater than 25 µM.
Work on Cc1cc(CC2(C)COc3c(cn(C)c3C(=O)Nc3ccc(F)c(F)c3)S(=O)(=O)N2)no1 (racemic) [Compound 162, N-(3,4-difluorophenyl)-3,7-dimethyl-3-[(5-methylisoxazol-3-yl)methyl]-1,1-dioxo-2,4-dihydropyrrolo[3,4-b][1,4,5]oxathiazepine-6-carboxamide] yielded an EC50 (HBV; [2]) of 3 nM and a CC50 at 4 days [1] greater than 25 µM.
In the case of Cn1ccc(CC2(C)COc3c(cn(C)c3C(=O)Nc3ccc(F)c(F)c3)S(=O)(=O)N2)n1 (racemic) [Compound 167, N-(3,4-difluorophenyl)-3,7-dimethyl-3-[(1-methylpyrazol-3-yl)methyl]-1,1-dioxo-2,4-dihydropyrrolo[3,4-b][1,4,5]oxathiazepine-6-carboxamide], the EC50 (HBV; [2]) is reported as 41 nM and the CC50 at 4 days [1] is reported as greater than 25 µM.
In the case of Cc1cccc(C2(C)COc3c(cn(C)c3C(=O)Nc3ccc(F)c(F)c3)S(=O)(=O)N2)n1 (racemic) [Compound 168, N-(3,4-difluorophenyl)-3,7-dimethyl-3-(6-methyl-2-pyridyl)-1,1-dioxo-2,4-dihydropyrrolo[3,4-b][1,4,5]oxathiazepine-6-carboxamide], the EC50 (HBV; [2]) is reported as 25 nM and the CC50 at 4 days [1] is reported as greater than 25 µM.
Cc1cc(CC2(C)COc3c(cn(C)c3C(=O)Nc3ccc(F)c(F)c3)S(=O)(=O)N2)n(C)n1 (racemic) [Compound 175, N-(3,4-difluorophenyl)-3-[(2,5-dimethylpyrazol-3-yl)methyl]-3,7-dimethyl-1,1-dioxo-2,4-dihydropyrrolo[3,4-b][1,4,5]oxathiazepine-6-carboxamide] showed an EC50 (HBV; [2]) of 4 nM and a CC50 at 4 days [1] greater than 25 µM.
For Cc1cc(CC2(C)COc3c(cn(C)c3C(=O)Nc3ccc(F)c(C(F)F)c3)S(=O)(=O)N2)n(C)n1 (racemic) [Compound 176, N-[3-(difluoromethyl)-4-fluoro-phenyl]-3-[(2,5-dimethylpyrazol-3-yl)methyl]-3,7-dimethyl-1,1-dioxo-2,4-dihydropyrrolo[3,4-b][1,4,5]oxathiazepine-6-carboxamide], the EC50 (HBV; [2]) was 4 nM and the CC50 at 4 days [1] was greater than 25 µM.
Compound Cc1cc(C2(C)COc3c(cn(C)c3C(=O)Nc3ccc(F)c(C(F)F)c3)S(=O)(=O)N2)no1 (racemic) [Compound 181, N-[3-(difluoromethyl)-4-fluoro-phenyl]-3,7-dimethyl-3-(5-methylisoxazol-3-yl)-1,1-dioxo-2,4-dihydropyrrolo[3,4-b][1,4,5]oxathiazepine-6-carboxamide] has an EC50 (HBV; [2]) of 8 nM and a CC50 at 4 days [1] greater than 25 µM.
With Cn1ccc(C2(C)COc3c(cn(C)c3C(=O)Nc3ccc(F)c(F)c3)S(=O)(=O)N2)n1 (racemic) [Compound 192, N-(3,4-difluorophenyl)-3,7-dimethyl-3-(1-methylpyrazol-3-yl)-1,1-dioxo-2,4-dihydropyrrolo[3,4-b][1,4,5]oxathiazepine-6-carboxamide] the EC50 (HBV; [2]) was 56 nM and the CC50 at 4 days [1] was greater than 25 µM.
Cn1cc2c(c1C(=O)Nc1ccc(F)c(Cl)c1)OCC1(CCOC1)NS2(=O)=O (racemic) [Compound 212, N-(3-chloro-4-fluoro-phenyl)-7-methyl-1,1-dioxo-spiro[2,4-dihydropyrrolo[3,4-b][1,4,5]oxathiazepine-3,3′-tetrahydrofuran]-6-carboxamide] gave an EC50 (HBV; [2]) of 7 nM and a CC50 at 4 days [1] greater than 25 µM.
Work on CC1C=Cc2c(cn(C)c2C(=O)Nc2ccc(F)c(F)c2)S(=O)(=O)N1 (single isomer, unassigned) [Compound 7a, N-(3,4-difluorophenyl)-3,7-dimethyl-1,1-dioxo-2,3-dihydropyrrolo-[3,4-f]thiazepine-6-carboxamide] yielded an EC50 (HBV) of 130 nM and a CC50 at 4 days [1] greater than 25 µM.
In the case of CC1CCc2c(cn(C)c2C(=O)Nc2ccc(F)c(F)c2)S(=O)(=O)N1 (single isomer, unassigned) [Compound 10a, N-(3,4-difluorophenyl)-3,7-dimethyl-1,1-dioxo-2,3,4,5-tetrahydropyrrolo[3,4-f]thiazepine-6-carboxamide], the EC50 (HBV) is reported as 220 nM and the CC50 at 4 days [1] is reported as greater than 25 µM.
For CC1COc2c(cn(C)c2C(=O)Nc2ccc(F)c(F)c2)S(=O)(=O)N1 (single isomer, unassigned) [Compound 14a, N-(3,4-difluorophenyl)-3,7-dimethyl-1,1-dioxo-3,4-dihydro-2H-pyrrolo-[3,4-b][1,4,5]oxathiazepine-6-carboxamide], the EC50 (HBV) was 250 nM and the CC50 at 4 days [1] was greater than 25 µM.
Work on CC1C/C=C\c2c(cn(C)c2C(=O)Nc2ccc(F)c(F)c2)S(=O)(=O)N1 (single isomer, unassigned) [Compound 15a, (5Z)—N-(3,4-difluorophenyl)-3,8-dimethyl-1,1-dioxo-3,4-dihydro-2H-pyrrolo[3,4-g]thiazocine-7-carboxamide] yielded an EC50 (HBV) of 78 nM and a CC50 at 4 days [1] greater than 25 µM.
Compound CC1C=Cc2c(cn(C)c2C(=O)Nc2cc(F)c(F)c(F)c2)S(=O)(=O)N1 (single isomer, unassigned) [Compound 29, (*S)-3,7-dimethyl-1,1-dioxo-N-(3,4,5-trifluorophenyl)-2,3-dihydropyrrolo[3,4-f]thiazepine-6-carboxamide] has an EC50 (HBV; [2]) of 5 nM and a CC50 at 4 days [1] greater than 25 µM.
C[C@H]1C=Cc2c(cn(C)c2C(=O)Nc2ccc(F)c(C(F)(F)F)c2)S(=O)(=O)N1 (single isomer, unassigned) [Compound 30, (*S)—N-[4-fluoro-3-(trifluoromethyl)phenyl]-3,7-dimethyl-1,1-dioxo-2,3-dihydropyrrolo[3,4-f]thiazepine-6-carboxamide] gave an EC50 (HBV; [2]) of 13 nM and a CC50 at 4 days [1] greater than 25 µM.
In the case of Cc1cc(NC(=O)c2c3c(cn2C)S(=O)(=O)N[C@@H](C)C=C3)ccc1F (single isomer, unassigned) [Compound 31, (*S)—N-(4-fluoro-3-methyl-phenyl)-3,7-dimethyl-1,1-dioxo-2,3-dihydropyrrolo[3,4-f]thiazepine-6-carboxamide], the EC50 (HBV; [2]) is reported as 9 nM and the CC50 at 4 days [1] is reported as greater than 25 µM.
C[C@H]1C=Cc2c(cn(C)c2C(=O)Nc2ccc(F)c(C#N)c2)S(=O)(=O)N1 (single isomer, unassigned) [Compound 32, (*S)—N-(3-cyano-4-fluoro-phenyl)-3,7-dimethyl-1,1-dioxo-2,3-dihydropyrrolo[3,4-f]thiazepine-6-carboxamide] gave an EC50 (HBV; [2]) of 3 nM and a CC50 at 4 days [1] greater than 25 µM.
C[C@H]1CCc2c(cn(C)c2C(=O)Nc2cc(F)c(F)c(F)c2)S(=O)(=O)N1 (single isomer, unassigned) [Compound 39, (3*S)-3,7-dimethyl-1,1-dioxo-N-(3,4,5-trifluorophenyl)-2,3,4,5-tetrahydropyrrolo[3,4-f]thiazepine-6-carboxamide] gave an EC50 (HBV; [2]) of 3 nM and a CC50 at 4 days [1] greater than 25 µM.
In the case of Cc1cc(CC2(C)COc3c(cn(C)c3C(=O)Nc3cc(F)c(F)c(F)c3)S(=O)(=O)N2)no1 (single isomer, unassigned) [Compound 170a, 3,7-dimethyl-3-[(5-methylisoxazol-3-yl)methyl]-1,1-dioxo-N-(3,4,5-trifluorophenyl)-2,4-dihydropyrrolo[3,4-b][1,4,5]oxathiazepine-6-carboxamide], the CC50 at 4 days [1] is reported as greater than 25 µM.
Cc1cccc(C2(C)COc3c(cn(C)c3C(=O)Nc3ccc(F)c(C(F)F)c3)S(=O)(=O)N2)n1 (single isomer, unassigned) [Compound 177a, N-[3-(difluoromethyl)-4-fluoro-phenyl]-3,7-dimethyl-3-(6-methyl-2-pyridyl)-1,1-dioxo-2,4-dihydropyrrolo[3,4-b][1,4,5]oxathiazepine-6-carboxamide] showed a CC50 at 4 days [1] greater than 25 µM.
Work on Cn1cc2c(c1C(=O)Nc1ccc(F)c(F)c1)C=CC(C)(Cc1ccc(Cl)nc1)NS2(=O)=O (centres unmarked) [Compound 219, 3-[(6-chloro-3-pyridyl)methyl]-N-(3,4-difluorophenyl)-3,7-dimethyl-1,1-dioxo-2H-pyrrolo[3,4-f]thiazepine-6-carboxamide] yielded a CC50 at 4 days [1] greater than 25 µM.
